In US10508109B2 (priority 2015, dated 2019) one finds IC50 data, which are given here for 17 compounds.

One test concerns the target SUV39H2 (Homo sapiens (Human), UniProt Q9H5I1). As to conditions: read-out: IC50 (μM) Suv 39H2 assay; enzyme assay.
The subject of the next test is PC14. The test can be described thus: Cell-based assay, anti-proliferative activity (Cell Counting Kit-8, 72 hours). As to conditions: Homo sapiens, read-out: IC50 (μM) PC14. The essentials: (§1)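 IC50 values reflect cell growth measured by Cell Counting Kit-8 following 72 hours of inhibitor exposure across a twofold dilution range up to 100 micro-M.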
For orientation: Tetrazolium dyes change colour on reduction, which living cells bring about.

The next test relates to HCT-116. Described as above. As to conditions: Homo sapiens, read-out: IC50 (μM) HCT-116. The essentials:
as §1

Another test deals with CCD-18Co. The test is described as above. As to conditions: Homo sapiens, read-out: IC50 (μM) CCD-18Co. Put shortly: as §1
Another test deals with HFL1. Described as above. As to conditions: Homo sapiens, read-out: IC50 (μM) HFL1. Put shortly: as §1
A further test relates to A549. The test is described as above. As to conditions: Homo sapiens, read-out: IC50 (μM) A549. Put shortly: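 Following seeding into 96-well microtiter plates, the cells receive candidate inhibitors, and cellular growth is quantified at the end of the exposure period. An IC50 is computed for each compound.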
Where [1] appears, read: PC-14, PC14 cells, Cell Counting Kit-8, 72 hours.
Setting [2] is: HCT-116 cells, Cell Counting Kit-8, 72 hours.
Where [3] appears, read: CCD-18Co cells, Cell Counting Kit-8, 72 hours.
The mark [4] stands for this setting: HFL1 cells, Cell Counting Kit-8, 72 hours.
Setting [5] is: A549 cells, Cell Counting Kit-8, 72 hours.
Setting [6] is: PC-14, PC14 cells, 72 hours, Cell Counting Kit-8.
The mark [7] stands for this setting: HCT-116 cells, 72 hours, Cell Counting Kit-8.
Setting [8] is: CCD-18Co cells, 72 hours, Cell Counting Kit-8.
Where [9] appears, read: HFL1 cells, 72 hours, Cell Counting Kit-8.
Setting [10] is: A549 cells, 72 hours, Cell Counting Kit-8.

Like-named read-outs stand apart in the source and are kept apart here.

SUV39H2, sequence (Q9H5I1 whole entry): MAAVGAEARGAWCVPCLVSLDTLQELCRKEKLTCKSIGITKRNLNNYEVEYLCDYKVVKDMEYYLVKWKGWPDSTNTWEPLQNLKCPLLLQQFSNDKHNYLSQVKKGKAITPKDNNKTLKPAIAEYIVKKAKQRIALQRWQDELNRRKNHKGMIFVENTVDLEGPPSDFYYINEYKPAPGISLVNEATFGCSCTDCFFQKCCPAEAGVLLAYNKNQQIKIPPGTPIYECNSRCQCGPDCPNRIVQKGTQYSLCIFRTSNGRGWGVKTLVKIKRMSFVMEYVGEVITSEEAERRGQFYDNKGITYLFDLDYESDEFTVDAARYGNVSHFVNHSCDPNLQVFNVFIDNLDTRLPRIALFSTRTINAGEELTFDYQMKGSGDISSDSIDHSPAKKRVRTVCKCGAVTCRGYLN

Regarding `COc1cc(OC)c(-c2cn3ccc(N4CCC(NP(=O)(OC)OC)CC4)cc3n2)cc1Cl` [Example 198, Dimethyl (1-(2-(5-chloro-2,4-dimethoxyphenyl)imidazo[1,2-a]pyridin-7-yl)piperidin-4-yl)phosphoramidate], the IC50 (in general, the point on the concentration scale where inhibition reaches its midpoint) at SUV39H2 worked out at 0.00435 µM; in the test with PC14 (setting [1]), 3.7 µM; in the test on HCT-116 (setting [2]), 5.7 µM; in the test on CCD-18Co (setting [3]), 3.5 µM; in the test on HFL1 (setting [4]) it was 1.6 µM; with A549 (setting [5]), 3.2 µM.

With `COc1cc(OC)c(-c2cn3ccc(N4CCN(c5ccccc5)CC4)cc3n2)cc1Cl` [Example 282, 2-(5-chloro-2,4-dimethoxyphenyl)-7-(4-phenylpiperazin-1-yl)-imidazo[1,2-a]pyridine], the IC50 came to 0.0349 µM at SUV39H2; 0.96 µM in the test with PC14 (setting [6]); 1.4 µM with HCT-116 (setting [7]); 1.5 µM in the test on CCD-18Co (setting [8]); 1.4 µM in the test with HFL1 (setting [9]); 1.5 µM in the test on A549 (setting [10]).

Consider `CCCCCNC1CCN(c2ccn3cc(-c4cc(Cl)c(OC)cc4OCCCN(C)C)nc3c2)CC1` [Example 165, 1-(2-{5-chloro-2-[3-(dimethylamino)propoxy]-4-methoxyphenyl}imidazo-[1,2-a]pyridin-7-yl)-N-pentylpiperidin-4-amine], for which the IC50 turned out to be 0.0593 µM on SUV39H2; 2.2 µM in the test with PC14 (setting [1]); 1.7 µM with HCT-116 (setting [2]); 2.1 µM with CCD-18Co (setting [3]); 1.7 µM in the test with HFL1 (setting [4]); 2.2 µM with A549 (setting [5]).

For `COc1cc(OC)c(-c2cn3ccc(NC(=O)[C@@H]4CCCN4)cc3n2)cc1Cl` [Example 244, (S)—N-(2-(5-chloro-2,4-dimethoxyphenyl)imidazo[1,2-a]pyridin-7-yl)-pyrrolidine-2-carboxamide], the IC50 was determined as 0.0533 µM at SUV39H2; 5.2 µM with PC14 (setting [6]); 10 µM in the test with HCT-116 (setting [7]); 8.8 µM with CCD-18Co (setting [8]); 9.8 µM in the test on HFL1 (setting [9]); 10 µM in the test with A549 (setting [10]).

In the case of `COc1cc(OC)c(-c2cn3ccc(N4CCN(c5cnccn5)CC4)cc3n2)cc1Cl` [Example 285, 2-(5-chloro-2,4-dimethoxyphenyl)-7-(4-(pyrazin-2-yl)piperazin-1-yl)imidazo[1,2-a]pyridine], the IC50 at SUV39H2 is 0.00747 µM; in the test with PC14 (setting [6]), 0.7 µM; in the test on HCT-116 (setting [7]) it was 0.67 µM; with CCD-18Co (setting [8]), 0.7 µM; in the test on HFL1 (setting [9]) it was 0.69 µM; with A549 (setting [10]), 0.72 µM.

As for `COc1cc(OC)c(-c2cn3ccc(N4CCN(C(=O)OC(C)(C)C)CC4)nc3n2)cc1Cl` [Example 145, tert-butyl 4-[2-(5-chloro-2,4-dimethoxyphenyl)imidazo[1,2-a]pyrimidin-7-yl]piperazine-1-carboxylate], the concentration for half-maximal inhibition (IC50) was found to be 0.0738 µM at SUV39H2; 1.5 µM in the test with PC14 (setting [1]); 3.1 µM in the test with HCT-116 (setting [2]); 2.8 µM in the test on CCD-18Co (setting [3]); 2.8 µM in the test on HFL1 (setting [4]); 1.9 µM with A549 (setting [5]).

Consider `COc1cc(OC)c(-c2cn3ccc(N4CCNC(CO)C4)cc3n2)cc1Cl` (stereo not drawn) [Example 235, (4-(2-(5-chloro-2,4-dimethoxyphenyl)imidazo[1,2-a]pyridin-7-yl)-piperazin-2-yl)methanol], for which the half-inhibitory concentration (IC50) at SUV39H2 was found to be 0.0115 µM; with PC14 (setting [6]), 5.6 µM; in the test on HCT-116 (setting [7]) it was 6.6 µM; in the test on CCD-18Co (setting [8]), 6.7 µM; in the test with HFL1 (setting [9]) it was 4.3 µM; in the test on A549 (setting [10]), 5.3 µM.

For the compound `COc1cc(OC)c(-c2cn3ccc(N4CCN(c5ccnc(N6CCOCC6)n5)CC4)cc3n2)cc1Cl` [Example 294, 4-(4-(4-(2-(5-chloro-2,4-dimethoxyphenyl)imidazo[1,2-a]pyridin-7-yl)-piperazin-1-yl)pyrimidin-2-yl)morpholine], the IC50 at SUV39H2 was determined as 0.0283 µM; in the test with PC14 (setting [6]), 1 µM; in the test on HCT-116 (setting [7]), 0.78 µM; in the test on CCD-18Co (setting [8]) it was 1.3 µM; in the test with HFL1 (setting [9]) it was 2.3 µM; in the test on A549 (setting [10]) it was 1.1 µM.

Consider `COc1cc(OC)c(-c2cn3ccc(N4CCN(c5ccnc(N(C)C)n5)CC4)cc3n2)cc1Cl` [Example 297, 4-(4-(2-(5-chloro-2,4-dimethoxyphenyl)imidazo[1,2-a]pyridin-7-yl)-piperazin-1-yl)-N,N-dimethylpyrimidin-2-amine], for which the 50% inhibitory concentration (IC50) at SUV39H2 stood at 0.0342 µM; in the test with PC14 (setting [6]) it was 0.47 µM; with HCT-116 (setting [7]), 0.33 µM; with CCD-18Co (setting [8]) it was 0.72 µM; in the test on HFL1 (setting [9]) it was 0.65 µM; with A549 (setting [10]), 0.43 µM.

Consider `COc1cc(OC)c(-c2cn3ccc(N4CCN(S(C)(=O)=O)CC4)nc3n2)cc1Cl` [Example 177, 2-(5-chloro-2,4-dimethoxyphenyl)-7-(4-(methylsulfonyl)piperazin-1-yl)-imidazo[1,2-a]pyrimidine], for which the half-maximal inhibitory concentration (IC50) at SUV39H2 was 0.0408 µM; in the test with PC14 (setting [1]), 2.5 µM; in the test on HCT-116 (setting [2]), 6 µM; with CCD-18Co (setting [3]), 11 µM; in the test with HFL1 (setting [4]) it was 8 µM; with A549 (setting [5]), 3.8 µM.

Regarding `COc1cc(OC)c(-c2cn3ccc(C4=CCN(P(=O)(OC)OC)CC4)cc3n2)cc1Cl` [Example 195, dimethyl{4-[2-(5-chloro-2,4-dimethoxyphenyl)imidazo[1,2-a]pyridin-7-yl]-5,6-dihydropyridin-1(2H)-yl}phosphonate], the IC50 on SUV39H2 stood at 0.0375 µM; in the test with PC14 (PC-14, 72 h) it was 0.51 µM; with HCT-116 (HCT-116, 72 h) it was 0.93 µM; in the test with CCD-18Co (CCD-18Co, 72 h), 5.5 µM; with HFL1 (HFL1, 72 h) it was 2.8 µM; in the test on A549 (A549, 72 h), 0.7 µM.

For `COc1cc(OCCCN(C)C)c(-c2cn3ccc(N4CCN(C(=O)C(C)(C)C)CC4)cc3n2)cc1Cl` [Example 156, 1-(4-(2-(5-chloro-2-(3-(dimethylamino)propoxy)-4-methoxyphenyl)imidazo[1,2-a]pyridine-7-yl)piperazin-1-yl)-2,2-dimethylpropan-1-one], the IC50 on SUV39H2 was 0.0344 µM; with PC14 (setting [1]), 5.8 µM; with HCT-116 (setting [2]), 6.2 µM; in the test with CCD-18Co (setting [3]), 7.2 µM; in the test on HFL1 (setting [4]) it was 4.4 µM; in the test with A549 (setting [5]), 6.3 µM.

Turning to `COc1cc(C)c(Cl)cc1-c1cn2ccc(N3CCOCC3)cc2n1` [Example 230, 4-(2-(5-chloro-2-methoxy-4-methylphenyl)imidazo[1,2-a]pyridin-7-yl)morpholine], the IC50 worked out at 0.0183 µM at SUV39H2; 1.6 µM in the test on PC14 (setting [6]); 4 µM with HCT-116 (setting [7]); 3.5 µM in the test on CCD-18Co (setting [8]); 2.8 µM in the test on HFL1 (setting [9]); 4.4 µM in the test with A549 (setting [10]).

Consider `COc1cc(OC)c(-c2cn3ccc(N4CCCN(P(=O)(OC)OC)CC4)cc3n2)cc1Cl` [Example 207, dimethyl (4-(2-(5-chloro-2,4-dimethoxyphenyl)imidazo[1,2-a]pyridin-7-yl)-1,4-diazepan-1-yl)phosphonate], for which the IC50 worked out at 0.0113 µM at SUV39H2; 10 µM in the test with PC14 (PC-14, 72 h); 10 µM in the test on HCT-116 (HCT-116, 72 h); 10 µM with CCD-18Co (CCD-18Co, 72 h); 10 µM in the test on HFL1 (HFL1, 72 h); 10 µM in the test with A549 (A549, 72 h).

For the compound `COC(=O)CCCN1CCN(c2ccn3cc(-c4cc(Cl)c(OC)cc4OC)nc3c2)CC1` [Example 237, methyl 4-(4-(2-(5-chloro-2,4-dimethoxyphenyl)imidazo[1,2-a]pyridine-7-yl)piperazin-1-yl)butanoate], the IC50 worked out at 0.0113 µM at SUV39H2; 10 µM in the test on PC14 (setting [6]); 10 µM in the test on HCT-116 (setting [7]); 10 µM with CCD-18Co (setting [8]); 10 µM with HFL1 (setting [9]); 10 µM in the test with A549 (setting [10]).

As for `COc1cc(OC)c(-c2cn3ccc(N4CCC(NC(=O)C(C)(C)C)CC4)cc3n2)cc1Cl` [Example 123, N-(1-(2-(5-chloro-2,4-dimethoxyphenyl)imidazo[1,2-a]pyridin-7-yl)piperidin-4-yl)pivalamide], the IC50 on SUV39H2 came out at 0.00771 µM; with PC14 (setting [1]) it was 2.2 µM; in the test on HCT-116 (setting [2]), 2.6 µM; in the test on CCD-18Co (setting [3]), 3.4 µM; in the test with HFL1 (setting [4]), 2 µM; in the test on A549 (setting [5]), 3.3 µM.

On to `COc1cc(OC)c(-c2cn3ccc(N4CCN(S(=O)(=O)N(C)C)CC4)cc3n2)cc1Cl` [Example 171, 4-[2-(5-chloro-2,4-dimethoxyphenyl)imidazo[1,2-a]pyridin-7-yl]-N,N-dimethylpiperazine-1-sulfonamide], for which the IC50 was found to be 0.0135 µM on SUV39H2; 2 µM with PC14 (setting [1]); 0.94 µM with HCT-116 (setting [2]); 0.84 µM in the test on CCD-18Co (setting [3]); 1.2 µM in the test on HFL1 (setting [4]); 0.83 µM in the test with A549 (setting [5]).
